Each structure is given as a SMILES string.

The assay deals with T1, human GCS (glucosylceramide synthase) (Homo sapiens, UniProt Q16739).
T1 construct: made in house; host or cells: Expi293F cells (transient expression; microsome fraction)
T1 sequence (Q16739 1-394): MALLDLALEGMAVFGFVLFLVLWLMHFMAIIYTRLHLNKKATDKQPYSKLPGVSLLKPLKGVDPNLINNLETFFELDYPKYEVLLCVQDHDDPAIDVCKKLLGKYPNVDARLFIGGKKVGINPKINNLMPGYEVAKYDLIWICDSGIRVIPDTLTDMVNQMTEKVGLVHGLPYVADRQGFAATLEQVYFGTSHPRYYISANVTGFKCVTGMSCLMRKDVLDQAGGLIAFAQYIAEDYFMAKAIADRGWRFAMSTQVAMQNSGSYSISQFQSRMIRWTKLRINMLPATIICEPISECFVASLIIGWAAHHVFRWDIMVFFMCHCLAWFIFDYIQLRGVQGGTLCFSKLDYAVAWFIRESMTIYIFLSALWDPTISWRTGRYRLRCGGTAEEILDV
Nature of the assay: Glucosylceramide Synthase (GCS) Assay. It is filed as biochemical. Conditions: test compound 10 μM; microsome fraction of Expi293F cells expressing human GCS; 1.7 μM UDP-glucose, 3 μM C8 ceramide; room temperature 60 min; C8 glucosylceramide by Rapidfire MS/MS; read-out: GCS enzyme inhibitory rate at 10 μM (%). The gist of the method:
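Enzyme source was a microsome fraction from Expi293F cells transiently expressing human GCS. Reaction ran 60 min at room temperature in 20 mM Tris pH 7.5 with 1.7 μM UDP-glucose (Km) and 3 μM liposomal C8 ceramide, compound at 10 μM final. C8 glucosylceramide quantified by RapidFire MS/MS; inhibition scaled between enzyme-free and DMSO controls.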
For `O=C(Nc1ccc(C(O)(C(F)F)C(F)F)cc1)c1ccnn(-c2ccccc2OCC(F)F)c1=O` [Example 153, 2-[2-(2,2-difluoroethoxy)phenyl]-3-oxo-N-[4-(1,1,3,3-tetrafluoro-2-hydroxypropan-2-yl)phenyl]-2,3-dihydropyridazine-4-carboxamide], the inhibition at 10 µM amounted to 100%.
Take `COC(C)(C)c1ccc(NC(=O)c2cccn(-c3ccccc3OCC(F)(F)F)c2=O)cn1` [Example 92, N-[6-(2-methoxypropan-2-yl)pyridin-3-yl]-2-oxo-1-[2-(2,2,2-trifluoroethoxy)phenyl]-1,2-dihydropyridine-3-carboxamide]: the inhibition at 10 µM is 95%.
For `O=C(Nc1cnc(C(F)(F)F)nc1)c1cccn(-c2ccc(F)cc2OCC(F)(F)F)c1=O` [Example 36, 1-[4-fluoro-2-(2,2,2-trifluoroethoxy)phenyl]-2-oxo-N-[2-(trifluoromethyl)pyrimidin-5-yl]-1,2-dihydropyridine-3-carboxamide] the value was 86%; for `Cn1cc(C(=O)Nc2ccc(C(C)(C)O)cc2)c(=O)c(-c2ccccc2OCC(F)F)n1` [Example 158, 6-[2-(2,2-difluoroethoxy)phenyl]-N-[4-(2-hydroxypropan-2-yl)phenyl]-2-methyl-5-oxo-2,5-dihydropyridazine-4-carboxamide], 100%.
For `O=C(Nc1ccc(C(O)(C(F)F)C(F)F)cc1)c1cn(CC2COC2)nc(-c2ccccc2OCC(F)F)c1=O` [Example 175, 6-[2-(2,2-difluoroethoxy)phenyl]-2-[(oxetan-3-yl)methyl]-5-oxo-N-[4-(1,1,3,3-tetrafluoro-2-hydroxypropan-2-yl)phenyl]-2,5-dihydropyridazine-4-carboxamide] the value was 100%; for `COc1cc(F)ccc1-n1cccc(C(=O)Nc2ccc(Oc3ccccc3)cc2)c1=O` [Example 3, 1-(4-fluoro-2-methoxyphenyl)-2-oxo-N-(4-phenoxyphenyl)-1,2-dihydropyridine-3-carboxamide], 92%.
With `O=C(Nc1cnn(CC(F)(F)F)c1)c1cccn(-c2ccc(F)cc2OCC(F)(F)F)c1=O` [Example 48, 1-[4-fluoro-2-(2,2,2-trifluoroethoxy)phenyl]-2-oxo-N-[1-(2,2,2-trifluoroethyl)-1H-pyrazol-4-yl]-1,2-dihydropyridine-3-carboxamide] the figure was 70%; with `O=C(Nc1ccc(C(F)F)nc1)c1cccn(-c2ccc(F)cc2OCC(F)(F)F)c1=O` [Example 49, N-[6-(difluoromethyl)pyridin-3-yl]-1-[4-fluoro-2-(2,2,2-trifluoroethoxy)phenyl]-2-oxo-1,2-dihydropyridine-3-carboxamide], 97%.
Turning to `CC(C)(O)COc1ccc(NC(=O)c2cccn(-c3ccccc3OCC(F)(F)F)c2=O)cc1` [Example 70, N-[4-(2-hydroxy-2-methylpropoxy)phenyl]-2-oxo-1-[2-(2,2,2-trifluoroethoxy)phenyl]-1,2-dihydropyridine-3-carboxamide], the inhibition at 10 µM was found to be 97%.
For `O=C(Nc1ccc(OCC(F)(F)F)nc1)c1cccn(-c2ccc(F)cc2OCC(F)(F)F)c1=O` [Example 26, 1-[4-fluoro-2-(2,2,2-trifluoroethoxy)phenyl]-2-oxo-N-[6-(2,2,2-trifluoroethoxy)pyridin-3-yl]-1,2-dihydropyridine-3-carboxamide] the value was 100%; for `O=C(Nc1ccc(Oc2ccccc2)cc1)c1cccn(-c2ccccc2N2CCOCC2)c1=O` [Example 4, 1-[2-(morpholin-4-yl)phenyl]-2-oxo-N-(4-phenoxyphenyl)-1,2-dihydropyridine-3-carboxamide], 93%; for `CC(C)(O)c1ccc(NC(=O)c2ccnn(-c3ccc(F)cc3OCC(F)(F)C(F)(F)F)c2=O)cc1` [Example 106, 2-[4-fluoro-2-(2,2,3,3,3-pentafluoropropoxy)phenyl]-N-[4-(2-hydroxypropan-2-yl)phenyl]-3-oxo-2,3-dihydropyridazine-4-carboxamide], 99%.
With `CC(C)(O)Cn1cc(C(=O)Nc2ccc(C(C)(C)O)cc2)c(=O)c(-c2ccccc2OCC(F)F)n1` [Example 174, 6-[2-(2,2-difluoroethoxy)phenyl]-2-(2-hydroxy-2-methylpropyl)-N-[4-(2-hydroxypropan-2-yl)phenyl]-5-oxo-2,5-dihydropyridazine-4-carboxamide] the figure was 91%.
With `O=C(Nc1ccc(C(O)(C(F)F)C(F)F)nc1)c1cn(C(F)F)nc(-c2ccccc2OCC(F)F)c1=O` [Example 177, 6-[2-(2,2-difluoroethoxy)phenyl]-2-(difluoromethyl)-5-oxo-N-[6-(1,1,3,3-tetrafluoro-2-hydroxypropan-2-yl)pyridin-3-yl]-2,5-dihydropyridazine-4-carboxamide] the figure was 100%; with `O=C(Nc1ccc(C(O)(C(F)F)C(F)F)nc1)c1cn(C2COC2)nc(-c2ccccc2OCC(F)F)c1=O` [Example 187, 6-[2-(2,2-difluoroethoxy)phenyl]-2-(oxetan-3-yl)-5-oxo-N-[6-(1,1,3,3-tetrafluoro-2-hydroxypropan-2-yl)pyridin-3-yl]-2,5-dihydropyridazine-4-carboxamide], 100%; with `CC(C)(O)c1ccc(NC(=O)c2cn(C3CC3)nc(-c3ccccc3OCC(F)F)c2=O)cc1` [Example 169, 2-cyclopropyl-6-[2-(2,2-difluoroethoxy)phenyl]-N-[4-(2-hydroxypropan-2-yl)phenyl]-5-oxo-2,5-dihydropyridazine-4-carboxamide], 100%.
With `CC(C)(O)c1ccc(NC(=O)c2cncn(-c3ccc(F)cc3OCC(F)(F)F)c2=O)cc1` [Example 98, 1-[4-fluoro-2-(2,2,2-trifluoroethoxy)phenyl]-N-[4-(2-hydroxypropan-2-yl)phenyl]-6-oxo-1,6-dihydropyrimidine-5-carboxamide], the inhibition at 10 µM is 98%.
For `CC(C)(O)c1ccc(NC(=O)c2ccnn(-c3ccccc3OCC(F)F)c2=O)nc1` [Example 132, 2-[2-(2,2-difluoroethoxy)phenyl]-N-[5-(2-hydroxypropan-2-yl)pyridin-2-yl]-3-oxo-2,3-dihydropyridazine-4-carboxamide] the value was 96%; for `C=C(C)c1ccc(NC(=O)c2cc(C(C)(C)O)nn(-c3ccccc3OCC(F)(F)F)c2=O)cc1` [Example 203, 6-(2-hydroxypropan-2-yl)-3-oxo-N-[4-(prop-1-en-2-yl)phenyl]-2-[2-(2,2,2-trifluoroethoxy)phenyl]-2,3-dihydropyridazine-4-carboxamide], 99%.
With `O=C(Nc1ccc(OCC(F)(F)F)nc1)c1cccn(-c2ccc(F)cc2N2CCOCC2)c1=O` [Example 25, 1-[4-fluoro-2-(morpholin-4-yl)phenyl]-2-oxo-N-[6-(2,2,2-trifluoroethoxy)pyridin-3-yl]-1,2-dihydropyridine-3-carboxamide] the figure was 81%; with `O=C(Nc1ccc(Oc2ccccc2)cc1)c1cccn(-c2ccc(F)cc2N2CCOCC2)c1=O` [Example 17, 1-[4-fluoro-2-(morpholin-4-yl)phenyl]-2-oxo-N-(4-phenoxyphenyl)-1,2-dihydropyridine-3-carboxamide], 81%.
With `CC(C)(O)c1ccc(NC(=O)c2cccn(-c3ccc(F)cc3OCC(F)(F)C(F)(F)F)c2=O)cc1` [Example 58, 1-[4-fluoro-2-(2,2,3,3,3-pentafluoropropoxy)phenyl]-N-[4-(2-hydroxypropan-2-yl)phenyl]-2-oxo-1,2-dihydropyridine-3-carboxamide] the figure was 99%.
Take `Cn1cc(C(=O)Nc2ccc(C(F)F)cc2)c(=O)c(-c2ccccc2OCC(F)F)n1` [Example 185, 6-[2-(2,2-difluoroethoxy)phenyl]-N-[4-(difluoromethyl)phenyl]-2-methyl-5-oxo-2,5-dihydropyridazine-4-carboxamide]: the inhibition at 10 µM worked out at 79%.
For `COc1cc(F)ccc1-n1cccc(C(=O)Nc2ccc(N3CCOCC3)cc2)c1=O` [Example 19, 1-(4-fluoro-2-methoxyphenyl)-N-[4-(morpholin-4-yl)phenyl]-2-oxo-1,2-dihydropyridine-3-carboxamide], the inhibition at 10 µM stood at 55%.
For `Cn1cc(C(=O)Nc2ccc(C(O)(C(F)F)C(F)F)nc2)c(=O)c(-c2ccccc2OCC(F)F)n1` [Example 176, 6-[2-(2,2-difluoroethoxy)phenyl]-2-methyl-5-oxo-N-[6-(1,1,3,3-tetrafluoro-2-hydroxypropan-2-yl)pyridin-3-yl]-2,5-dihydropyridazine-4-carboxamide], the inhibition at 10 µM was determined as 100%.
With `N#CCc1ccc(NC(=O)c2cccn(-c3ccc(F)cc3OCC(F)(F)F)c2=O)cc1` [Example 57, N-[4-(cyanomethyl)phenyl]-1-[4-fluoro-2-(2,2,2-trifluoroethoxy)phenyl]-2-oxo-1,2-dihydropyridine-3-carboxamide] the figure was 95%; with `CC(C)(O)c1ccc(NC(=O)c2cn(C3CCOC3)nc(-c3ccccc3OCC(F)F)c2=O)cc1` (racemic) [Example 193, rac-6-[2-(2,2-difluoroethoxy)phenyl]-N-[4-(2-hydroxypropan-2-yl)phenyl]-5-oxo-2-(oxolan-3-yl)-2,5-dihydropyridazine-4-carboxamide], 99%.

(Values after patent US20220289679A1, “HETEROCYCLIC COMPOUND” (Takeda Pharmaceutical Company Limited, priority 2019, published 2022).)
